Laboratory results taken from patent publication EP2812315B1, “PYRROLIC DERIVATIVES, PROCESSES FOR PREPARING THE SAME AND THEIR USES AS A DRUG” (Universite Joseph Fourier, priority 2012, dated 2013).
≈ marks a conversion by molar mass, not a printed value.

Experiments:
Assay type in all cases: cell-based
[1] = test system: Acinetobacter baumanii ATCC 19606; experiment: MIC determination, microdilution method (CLSI M07-A8); conditions: Acinetobacter baumannii, ATCC19606; Acinetobacter baumanii ATCC 19606; 18 hours incubation; read-out: MIC
Description: (§1) The microdilution method recommended by the Clinical and Laboratory Standard Institute [M07-A8, Vol.29, N°2] was used. The activity of pyrrolic compounds was tested against 29 bacterial strains belonging to 17 different species and 12 different genera (Staphylococcus, Streptococcus, Enterococcus, […], Bacillus, Haetttophilus, Escherichia, Klebsiella, Enterobacter, Serratia, Pseudomonas, and Acinetobacter). Bacterial inocula were prepared in Mueller Hinton broth (MH2, bioMérieux, Marcy L'Etoile, France), supplemented with 10% sheep blood for fastidious species (i.e., Streptococcus pneumoniae and Haemophilus influenzae). They were dispensed in 96 well microtiter plates (5 x 10^5 CFU/mL of final inoculum). Pyrrolic compounds were added to the wells as to obtain two-fold serial concentrations (0.25-64 mg/L). Plates were incubated at 37°C, in 5% CO2 enriched atmosphere for fastidious species only. MICs were read after 18 hours incubation of cultures, and corresponded to the minimum pyrrolic compound concentration that allowed complete visual growth inhibition of bacteria. Drug-free cultures served as growth controls. Cultures receiving gentamicine, ciprofloxacine or cefotaxime served as positive controls.

[2] = test system: Enterobacter cloacae ATCC13047; experiment: as above; conditions: Enterobacter cloacae ATCC13047; 18 hours incubation; read-out: MIC
Description: as §1

[3] = test system: Escherichia coli ATCC 25922; experiment: as above; conditions: ATCC25922; Escherichia coli ATCC 25922; 18 hours incubation; read-out: MIC
Description: as §1

[4] = test system: Klebsiella pneumoniae ATCC 35657; experiment: as above; conditions: ATCC35657; Klebsiella pneumoniae ATCC 35657; 18 hours incubation; read-out: MIC
Description: as §1

[5] = test system: Pseudomonas aeruginosa CIP 5933; experiment: as above; conditions: CIP5933; Pseudomonas aeruginosa CIP 5933; 18 hours incubation; read-out: MIC
Description: as §1

[6] = test system: Serratia marcescens CIP 103551; experiment: as above; conditions: CIP103551; Serratia marcescens CIP 103551; 18 hours incubation; read-out: MIC
Description: as §1

[7] = test system: Staphylococcus aureus ATCC 25923; experiment: as above; conditions: ATCC25923; Staphylococcus aureus ATCC 25923; 5 x 10^5 CFU/mL; 18 hours incubation; read-out: MIC
Description: as §1

[8] = test system: Staphylococcus aureus ATCC 29213; experiment: as above; conditions: ATCC29213; Staphylococcus aureus ATCC 29213; 5 x 10^5 CFU/mL; 18 hours incubation; read-out: MIC
Description: as §1

[9] = test system: Staphylococcus epidermidis ATCC 12228; experiment: as above; conditions: ATCC12228; Staphylococcus epidermidis ATCC 12228; 5 x 10^5 CFU/mL; 18 hours incubation; read-out: MIC
Description: as §1

[10] = test system: Staphylococcus aureus (ATCC 106414, VISA); experiment: Other MIC determination, microdilution method (CLSI M07-A9) with modifications; conditions: 10^6 CFU/ml, 18h at 37 °C
Description: (§2) The microdilution method recommended by the Clinical and Laboratory Standard Institute [M07-A9, Vol.32, N°2] was used with the following modifications.
(§3) Bacterial inocula were prepared in Mueller Hinton broth (MH2, BioMérieux, Marcy L'Etoile, France). They were dispensed in 96 well microtiter plates (10^6 CFU/ml of final inoculum, 192 µL per well).
(§4) To avoid cross-contaminations in microtiter plates, one row was left blank between each strain tested. Microplates were incubated for 18h at 37 °C in ambient air. Then MICs were read visually and, in case of visual reading difficulties, confirmed using a spectrophotometer at a wavelength of 630 nm (BioTek® EL808 Absorbance Microplate Reader). MICs corresponded to the minimum pyrrolic compound concentrations that allowed complete visual growth inhibition of bacteria. Drug-free cultures served as growth controls.
(§5) We used four Staphylococcus aureus strains. Two reference strains were provided by the French reference center for Staphylococcus spp. (Lyon, France), including one methicillin-susceptible (MSSA 476) and one methicillin-resistant (MRSA 252) S. aureus strains. The two remaining S. aureus strains were purchased from the CRBIP (Centre de Ressources Biologiques de l'Institut Pasteur): a vancomycin-intermediate strain (ATCC 106414) and a S. aureus strain (SA-1199B) resistant to fluoroquinolones due to overexpression of the NorA multidrug efflux pump. Coagulase-negative Staphylococcus strains included three reference strains purchased from CRBIP: a methicillin-susceptible S. epidermidis strain (ATCC 12228), a methicillin-resistant S. epidermidis strain (ATCC 49461), and a methicillin-susceptible S. sciuri strain (ATCC 29061). We also used 37 clinical strains belonging to the following coagulase-negative Staphylococcus species: S. arlettae (two strains), S. capitis (nine strains), S. epidermidis (one strain), S. haemolyticus (six strains), S. hominis (eight strains), S. lugdunensis (one strain), S. massiliensis (one strain), S. pettenkoferi (two strains), S. saprophyticus (two strains), S. simulans (one strain), and S. warneri (four strains) . Identification of the clinical strains was first obtained using VITEK® 2 System (Biomérieux) and confirmed by amplification and sequencing of the tuf gene (Reference: Bergeron, M., O. Dauwalder, M. Gouy, A.-M. Freydiere, M. Bes, H. Meugnier, Y. Benito, J. Etienne, G. Lina, F. Vandenesch, and S. Boisset. Species identification of staphylococci by amplification and sequencing of the tuf gene compared to the gap gene and by matrix-assisted laser desorption ionization time-of-flight mass spectrometry, Eur. J. Clin. Microbial. Infect. Dis. 2011, 30, 343-354).
(§6) The activity of pyrrolic compounds 3c, 3e-3j and 3n was first tested against 12 Staphylococcus sp. strains, including 7 reference strains and five clinical strains. The MICs of these compounds against Staphylococcus aureus ATCC 106414 (VISA) and Staphylococcus epidermidis ATCC 12228 are in accordance with those described in Tables I and II.

[11] = test system: Staphylococcus capitis (CHUG-Scapi1); experiment: as above; conditions: 10^6 CFU/ml, 18h at 37 °C
Description: as §2, §3, §4, §5, §6

[12] = test system: Staphylococcus epidermidis (ATCC 49461); experiment: as above; conditions: ATCC49461, 10^6 CFU/ml, 18h at 37 °C
Description: as §2, §3, §4, §5, §6

[13] = test system: Staphylococcus haemolyticus (CHUG-Shae1); experiment: as above; conditions: 10^6 CFU/ml, 18h at 37 °C
Description: as §2, §3, §4, §5, §6

[14] = test system: Staphylococcus sciuri (ATCC 29061); experiment: as above; conditions: Mammaliicoccus sciuri, ATCC29061, 10^6 CFU/ml, 18h at 37 °C
Description: as §2, §3, §4, §5, §6

[15] = test system: Staphylococcus warneri (CHUG-Swar1); experiment: as above; conditions: 10^6 CFU/ml, 18h at 37 °C
Description: as §2, §3, §4, §5, §6

Row | Structure (SMILES) | MIC [1] [µg/mL] | MIC [2] [µg/mL] | MIC [3] [µg/mL] | MIC [4] [µg/mL] | MIC [5] [µg/mL] | MIC [6] [µg/mL] | MIC [7] [µg/mL] | MIC [8] [µg/mL] | MIC [9] [µg/mL] | MIC [10] [µg/mL] | MIC [11] [µg/mL] | MIC [12] [µg/mL] | MIC [13] [µg/mL] | MIC [14] [µg/mL] | MIC [15] [µg/mL]
1 | CC(=O)c1c(C)[nH]c(C(c2cc3ccccc3s2)c2[nH]c(C)c(C(C)=O)c2C)c1C [3f] | > 128 | > 128 | > 128 | > 128 | > 128 | > 128 | 2 (≈ 4.78 µM) | 2 (≈ 4.78 µM) | > 128 | 2 (≈ 4.78 µM) | > 32 | > 32 | > 32 | > 32 | 4 (≈ 9.56 µM)
2 | CC(=O)c1c(C)[nH]c(C(c2ccc(F)cc2)c2[nH]c(C)c(C(C)=O)c2C)c1C [3g] | > 32 | > 32 | > 32 | > 32 | > 32 | > 32 | 2 (≈ 5.26 µM) | 1 (≈ 2.63 µM) | > 128 | 4 (≈ 10.5 µM) | 8 (≈ 21 µM) | > 32 | 16 (≈ 42.1 µM) | > 32 | 8 (≈ 21 µM)
3 | CC(=O)c1c(C)[nH]c(C(c2[nH]c(C)c(C(C)=O)c2C)c2csc3ccc(Br)cc23)c1C [3n] |  |  |  |  |  |  |  |  |  | 0.125 (≈ 0.251 µM) | 0.125 (≈ 0.251 µM) | > 32 | 1 (≈ 2.01 µM) | > 32 | 0.25 (≈ 0.503 µM)
4 | CC(=O)c1c(C)[nH]c(C(c2[nH]c(C)c(C(C)=O)c2C)c2cccc3ccccc23)c1C [3h] | > 128 | > 128 | > 128 | > 128 | > 128 | > 128 | 1 (≈ 2.42 µM) | 1 (≈ 2.42 µM) | > 128 | 1 (≈ 2.42 µM) | 4 (≈ 9.7 µM) | > 32 | 4 (≈ 9.7 µM) | > 32 | 2 (≈ 4.85 µM)
5 | CC(=O)c1c(C)[nH]c(C(c2ccc(Cl)cc2)c2[nH]c(C)c(C(C)=O)c2C)c1C [3c] | > 128 | > 128 | > 128 | > 128 | > 128 | > 128 | 4 (≈ 10.1 µM) | 2 (≈ 5.04 µM) | > 128 | 4 (≈ 10.1 µM) | 8 (≈ 20.2 µM) | > 32 | 16 (≈ 40.3 µM) | > 32 | 8 (≈ 20.2 µM)
6 | CC(=O)c1c(C)[nH]c(C(c2[nH]c(C)c(C(C)=O)c2C)c2csc3ccccc23)c1C [3i] | > 128 | > 128 | > 128 | > 128 | > 128 | > 128 | 1 (≈ 2.39 µM) | 0.5 (≈ 1.19 µM) | > 128 | 0.5 (≈ 1.19 µM) | 1 (≈ 2.39 µM) | > 32 | 4 (≈ 9.56 µM) | > 32 | 1 (≈ 2.39 µM)
7 | COC(=O)c1cccc(C(c2[nH]c(C)c(C(C)=O)c2C)c2[nH]c(C)c(C(C)=O)c2C)c1 [3j, Methyl-3-[bis(4-acetyl-3,5-dimethyl-1H-pyrrol-2-yl)methyl]benzoate] | > 32 | > 32 | > 32 | > 32 | > 32 | > 32 | 4 (≈ 9.51 µM) | 2 (≈ 4.76 µM) | > 128 | 4 (≈ 9.51 µM) | 16 (≈ 38 µM) | > 32 | 16 (≈ 38 µM) | > 32 | 16 (≈ 38 µM)
8 | CC(=O)c1c(C)[nH]c(C(c2cc3ccccc3o2)c2[nH]c(C)c(C(C)=O)c2C)c1C [3e] | > 128 | > 128 | > 128 | > 128 | > 128 | > 128 | 4 (≈ 9.94 µM) | 2 (≈ 4.97 µM) | > 128 | 4 (≈ 9.94 µM) | 8 (≈ 19.9 µM) | > 32 | > 32 | > 32 | 8 (≈ 19.9 µM)
